Laboratory results reported in patent publication US8361998B2, “Compounds and their use as IKACh blockers” (AstraZeneca AB, priority 2010, dated 2013).
pIC50: −log10 of the molar value.

Biological target: T1, human cardiac ion channel proteins hKir3.1/Kir3.4 (Homo sapiens, UniProt P48544+P48549)
T1 construct: expressed in transfected cells
T1 sequence (P48549 1-501): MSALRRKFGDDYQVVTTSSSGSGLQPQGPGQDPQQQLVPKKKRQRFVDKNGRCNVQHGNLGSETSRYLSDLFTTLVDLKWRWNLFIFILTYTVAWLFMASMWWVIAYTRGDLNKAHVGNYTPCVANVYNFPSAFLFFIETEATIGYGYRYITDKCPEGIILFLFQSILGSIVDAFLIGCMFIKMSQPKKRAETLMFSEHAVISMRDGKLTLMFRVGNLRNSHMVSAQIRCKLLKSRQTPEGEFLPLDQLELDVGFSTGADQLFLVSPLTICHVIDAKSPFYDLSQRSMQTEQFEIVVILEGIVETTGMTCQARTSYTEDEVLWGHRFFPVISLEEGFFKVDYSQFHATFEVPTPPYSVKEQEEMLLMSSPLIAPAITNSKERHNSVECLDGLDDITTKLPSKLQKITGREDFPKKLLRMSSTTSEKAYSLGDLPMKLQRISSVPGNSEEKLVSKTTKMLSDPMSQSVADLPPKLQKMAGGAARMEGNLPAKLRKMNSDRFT
T1 sequence (P48544 1-419): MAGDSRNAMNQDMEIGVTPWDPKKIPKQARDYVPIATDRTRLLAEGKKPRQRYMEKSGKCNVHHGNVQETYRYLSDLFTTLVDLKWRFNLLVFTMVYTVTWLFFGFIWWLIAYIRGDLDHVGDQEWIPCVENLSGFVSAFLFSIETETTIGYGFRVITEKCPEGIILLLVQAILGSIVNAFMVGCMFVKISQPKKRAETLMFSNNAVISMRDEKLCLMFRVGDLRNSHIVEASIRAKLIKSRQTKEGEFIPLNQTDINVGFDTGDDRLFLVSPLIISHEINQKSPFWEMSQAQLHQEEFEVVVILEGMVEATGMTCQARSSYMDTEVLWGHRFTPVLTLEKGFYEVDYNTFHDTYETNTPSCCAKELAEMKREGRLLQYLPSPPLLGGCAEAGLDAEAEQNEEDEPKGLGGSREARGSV
Test: Atomic Absorption Screening (AAS) Rb efflux assay of hKir3.1/Kir3.4 block, carbachol/high K+ stimulated, 10-pt or 7-pt CR
Format: cell-based
Conditions: 10-pt CR (0.003 to 67 μmol/L), AAS Rb efflux, CHO-K1 cells expressing hKir3.1/Kir3.4; mean of >4 replicates; read-out: IKACh IC50 10-pt CR, AAS
In short: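 CHO-K1 cells stably co-expressing human Kir3.1/Kir3.4 were Rb-loaded for 3 h at 37° C, preincubated with compound 5 min at RT, then stimulated 10 min with 10 μM carbachol plus 20 mM KCl (final). Supernatant Rb was measured by atomic absorption. Compounds ran at 0.003–67 μmol/L (10-pt) or 0.037–27 μmol/L (7-pt), threefold dilutions; IC50s are means of >4 or >3 replicates respectively.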

pIC50	Structure (SMILES)
5.89	COC1CCN(C[C@H](C(C)C)N(C)C(=O)c2ccc(Cl)cc2)CC1 [Example 3.7, (S)-4-Chloro-N-(1-(4-methoxypiperidin-1-yl)-3-methylbutan-2-yl)-N-methylbenzamide]
5.32	COC1CCN(C[C@H](C(C)C)N(C)C(=O)c2ccc(F)c(C)c2)CC1 [Example 3.8, (S)-4-Fluoro-N-(1-(4-methoxypiperidin-1-yl)-3-methylbutan-2-yl)-N,3-dimethylbenzamide]
5.52	COC1CCN(C[C@H](C(C)C)N(C)C(=O)c2ccc(F)c(Cl)c2)CC1 [Example 3.9, (S)-3-Chloro-4-fluoro-N-(1-(4-methoxypiperidin-1-yl)-3-methylbutan-2-yl)-N-methylbenzamide]
4.85	COC1CCN(C[C@H](C(C)C)N(C)C(=O)c2cccc(C)c2)CC1 [Example 3.10, (S)-N-(1-(4-Methoxypiperidin-1-yl)-3-methylbutan-2-yl)-N,3-dimethylbenzamide]
5.14	COc1cc(C(=O)N(C)[C@H](CN2CCC(OC)CC2)C(C)C)ccc1C [Example 3.11, (S)-3-Methoxy-N-(1-(4-methoxypiperidin-1-yl)-3-methylbutan-2-yl)-N,4-dimethylbenzamide]
5.60	COC1CCN(C[C@H](C(C)C)N(C)C(=O)c2ccc(C)c(C)c2)CC1 [Example 3.12, (S)-N-(1-(4-Methoxypiperidin-1-yl)-3-methylbutan-2-yl)-N,3,4-trimethylbenzamide]
5.44	Cc1cc(C(=O)N(C)[C@H](CN2CCCC2)C2CC2)ccc1F [Example 3.13, (S)-N-(1-Cyclopropyl-2-(pyrrolidin-1-yl)ethyl)-4-fluoro-N,3-di-methylbenzamide]
5.72	COC[C@@H]1CCCN1C[C@H](C(C)C)N(C)C(=O)c1ccc(OC)cc1 [Example 3.18, 4-Methoxy-N-((S)-1-((S)-2-(methoxymethyl)pyrrolidin-1-yl)-3-methylbutan-2-yl)-N-methylbenzamide]
5.22	COC[C@@H]1CCCN1C[C@H](C(C)C)N(C)C(=O)c1ccc(Cl)cc1 [Example 3.19, 4-Chloro-N-((S)-1-((S)-2-(methoxymethyl)pyrrolidin-1-yl)-3-methylbutan-2-yl)-N-methylbenzamide]
5.08	COC[C@@H]1CCCN1C[C@H](C(C)C)N(C)C(=O)c1ccc(Br)cc1 [Example 3.20, 4-Bromo-N-((S)-1-((S)-2-(methoxymethyl)pyrrolidin-1-yl)-3-methylbutan-2-yl)-N-methylbenzamide]
5.17	CN(C(=O)c1ccc(Br)cc1)[C@H](CN1CCC1)C1CC1 [Example 4.3, (S)-N-(2-(Azetidin-1-yl)-1-cyclopropylethyl)-4-bromo-N-methylbenzamide]
5.60	CC(C)[C@@H](CN1CC(O)C1)N(C)C(=O)c1ccc(Br)cc1 [Example 6.3, (S)-4-Bromo-N-(1-(3-hydroxyazetidin-1-yl)-3-methylbutan-2-yl)-N-methylbenzamide]
5.01	CN(C(=O)c1ccc(F)cc1)[C@H](CN1CC(O)C1)C1CC1 [Example 7.4, (S)-N-(1-Cyclopropyl-2-(3-hydroxyazetidin-1-yl)ethyl)-4-fluoro-N-methylbenzamide]
5.74	CN(C(=O)c1ccc(F)c(C(F)(F)F)c1)[C@H](CN1CC(O)C1)C1CC1 [Example 7.5, (S)-N-(1-Cyclopropyl-2-(3-hydroxyazetidin-1-yl)ethyl)-4-fluoro-N-methyl-3-(trifluoromethyl)benzamide]
6.10	CCC[C@@H](CN1CC(O)C1)N(C)C(=O)c1ccc(F)c(Cl)c1 [Example 8.3, (S)-3-Chloro-4-fluoro-N-(1-(3-hydroxyazetidin-1-yl)pentan-2-yl)-N-methylbenzamide]
6.70	CCC[C@@H](CN1CC(O)C1)N(C)C(=O)c1ccc(Cl)c(C)c1 [Example 8.4, (S)-4-Chloro-N-(1-(3-hydroxyazetidin-1-yl)pentan-2-yl)-N,3-di-methylbenzamide]
6.24	CCC[C@@H](CN1CC(O)C1)N(C)C(=O)c1ccc(F)c(C(F)(F)F)c1 [Example 8.5, (S)-4-Fluoro-N-(1-(3-hydroxyazetidin-1-yl)pentan-2-yl)-N-methyl-3-(trifluoromethyl)benzamide]
5.77	CCC[C@@H](CN1CC(O)C1)N(C)C(=O)c1ccc(Br)cc1 [Example 8.7, (S)-4-Bromo-N-(1-(3-hydroxyazetidin-1-yl)pentan-2-yl)-N-methylbenzamide]
5.62	CCC[C@@H](CN1CC(O)C1)N(C)C(=O)c1cccc(C(F)(F)F)c1 [Example 8.8, (S)-N-(1-(3-Hydroxyazetidin-1-yl)pentan-2-yl)-N-methyl-3-(tri-fluoromethyl)benzamide]
5.07	CCC[C@@H](CN1CC(O)C1)N(C)C(=O)c1ccc(C#N)cc1 [Example 8.9, (S)-4-Cyano-N-(1-(3-hydroxyazetidin-1-yl)pentan-2-yl)-N-methylbenzamide]
5.37	CCC[C@@H](CN1CC(O)C1)N(C)C(=O)c1cccc(C)c1 [Example 8.10, (S)-N-(1-(3-Hydroxyazetidin-1-yl)pentan-2-yl)-N,3-dimethyl-benzamide]
6.08	CCC[C@@H](CN1CC(O)C1)N(C)C(=O)c1ccc(F)c(C)c1 [Example 8.11, (S)-4-Fluoro-N-(1-(3-hydroxyazetidin-1-yl)pentan-2-yl)-N,3-di-methylbenzamide]
5.37	Cc1cc(C(=O)N(C)[C@H](CN2C[C@H](O)[C@@H](O)C2)C(C)C)ccc1F [Example 8.12, N-((S)-1-((3S,4S)-3,4-Dihydroxypyrrolidin-1-yl)-3-methylbutan-2-yl)-4-fluoro-N,3-dimethylbenzamide]
5.72	Cc1cc(C(=O)N(C)[C@H](CN2C[C@H](O)[C@@H](O)C2)C(C)C)ccc1Cl [Example 8.13, 4-Chloro-N-((S)-1-((3S,4S)-3,4-dihydroxypyrrolidin-1-yl)-3-methylbutan-2-yl)-N,3-dimethylbenzamide]
5.24	CC(C)[C@@H](CN1C[C@H](O)[C@@H](O)C1)N(C)C(=O)c1ccc(Cl)cc1 [Example 8.14, 4-Chloro-N-((S)-1-((3S,4S)-3,4-dihydroxypyrrolidin-1-yl)-3-methylbutan-2-yl)-N-methylbenzamide]
5.35	CC(C)[C@@H](CN1C[C@H](O)[C@@H](O)C1)N(C)C(=O)c1ccc(Cl)c(F)c1 [Example 8.15, 4-Chloro-N-((S)-1-((3S,4S)-3,4-dihydroxypyrrolidin-1-yl)-3-methylbutan-2-yl)-3-fluoro-N-methylbenzamide]
4.80	Cc1cc(C(=O)N(C)[C@H](CN2C[C@@H](O)[C@H](O)C2)C(C)C)ccc1Cl [Example 8.16, 4-Chloro-N-((S)-1-((3R,4R)-3,4-dihydroxypyrrolidin-1-yl)-3-methylbutan-2-yl)-N,3-dimethylbenzamide]
5.70	CC[C@@H](CN1CC(O)C1)N(C)C(=O)c1ccc(F)c(C)c1 [Example 8.17, (S)-4-Fluoro-N-(1-(3-hydroxyazetidin-1-yl)butan-2-yl)-N,3-dimethylbenzamide]
5.59	Cc1cc(C(=O)N(C)[C@H](CN2CC(O)(C3CC3)C2)C2CC2)ccc1F [Example 9.1, (S)—N-(1-Cyclopropyl-2-(3-cyclopropyl-3-hydroxyazetidin-1-yl)ethyl)-4-fluoro-N,3-dimethylbenzamide]

Structure (SMILES)	pIC50
CN(C(=O)c1ccc(Cl)cc1)[C@H](CN1CCCC1)C1CC1 [Example 3.14, (S)-4-Chloro-N-(1-cyclopropyl-2-(pyrrolidin-1-yl)ethyl)-N-methylbenzamide]	5.24
CN(C(=O)c1ccc(Br)cc1)[C@H](CN1CCCC1)C1CC1 [Example 3.15, (S)-4-Bromo-N-(1-cyclopropyl-2-(pyrrolidin-1-yl)ethyl)-N-methylbenzamide]	5.42
CN(C(=O)c1ccc(F)c(F)c1)[C@H](CN1CCCC1)C1CC1 [Example 3.16, (S)-N-(1-Cyclopropyl-2-(pyrrolidin-1-yl)ethyl)-3,4-difluoro-N-methylbenzamide]	4.89
Cc1cccc(C(=O)N(C)[C@H](CN2CCCC2)C2CC2)c1 [Example 3.17, (S)-N-(1-Cyclopropyl-2-(pyrrolidin-1-yl)ethyl)-N,3-dimethyl-benzamide]	5.03
CN(C(=O)c1ccc(Cl)cc1)[C@H](CN1CCC1)C1CC1 [Example 4.2, (S)-N-(2-(Azetidin-1-yl)-1-cyclopropylethyl)-4-chloro-N-methylbenzamide]	5.55
